Measurements: PubChem BioAssay AID1963862 (Molecular Pharmacology Branch, DTP, NCI, 2024)

System: KRAS patient-derived spheroids with HUVEC/MSC, viability
Test: Anticancer human tumor 941728-121-R-J1-PDC patient-derived lung adenocarcinoma cell line growth inhibition [KRAS2]
Conditions: for IC50: curve of first compound; for viability, T/C: stronger effect = lower value
In short: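 KRAS-mutant tumor cells were grown as spheroids with HUVEC endothelial cells and human MSCs as stroma. Targeted agents were tested alone and with KRAS pathway inhibitors. Doses started at or near clinical Cmax, or 10 microM, descending half-log.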

[1] = second compound 0.1 µM, first compound 0.0316 µM
[2] = second compound 0.1 µM, first compound 0.1 µM
[3] = second compound 0.1 µM, first compound 0.316 µM
[4] = second compound 0.1 µM, first compound 1 µM
[5] = second compound 0.1 µM, first compound 3.16 µM
[6] = second compound 0.316 µM, first compound 0.0316 µM
[7] = second compound 0.316 µM, first compound 0.1 µM
[8] = second compound 0.316 µM, first compound 0.316 µM
[9] = second compound 0.316 µM, first compound 1 µM
[10] = second compound 0.316 µM, first compound 3.16 µM
[11] = second compound 1 µM, first compound 0.0316 µM
[12] = second compound 1 µM, first compound 0.1 µM
[13] = second compound 1 µM, first compound 0.316 µM
[14] = second compound 1 µM, first compound 1 µM
[15] = second compound 1 µM, first compound 3.16 µM
[16] = second compound 3.16 µM, first compound 0.0316 µM
[17] = second compound 3.16 µM, first compound 0.1 µM
[18] = second compound 3.16 µM, first compound 0.316 µM
[19] = second compound 3.16 µM, first compound 1 µM
[20] = second compound 3.16 µM, first compound 3.16 µM
[21] = second compound 10 µM, first compound 0.0316 µM
[22] = second compound 10 µM, first compound 0.1 µM
[23] = second compound 10 µM, first compound 0.316 µM
[24] = second compound 10 µM, first compound 1 µM
[25] = second compound 10 µM, first compound 3.16 µM
[26] = second compound 0.1 µM, first compound 10 µM
[27] = second compound 0.316 µM, first compound 10 µM
[28] = second compound 1 µM, first compound 10 µM
[29] = second compound 3.16 µM, first compound 10 µM
[30] = second compound 10 µM, first compound 10 µM
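Also: spheroids exposed to agents for seven days before readout.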

Structure (SMILES)	IC50 (second compound 0.1 µM)	IC50 (second compound 0.316 µM)	IC50 (second compound 1 µM)	IC50 (second compound 3.16 µM)	IC50 (second compound 10 µM)	viability, T/C [1]	viability, T/C [2]	viability, T/C [3]	viability, T/C [4]	viability, T/C [5]	viability, T/C [6]	viability, T/C [7]	viability, T/C [8]	viability, T/C [9]	viability, T/C [10]	viability, T/C [11]	viability, T/C [12]	viability, T/C [13]	viability, T/C [14]	viability, T/C [15]	also measured
CC1COCCN1c1cc(-c2ccnn2C)c2ccnc(-c3ccn[nH]3)c2n1 (stereo not given) + CC1OCC2(CCN(c3cnc(Sc4ccnc(N)c4Cl)c(N)n3)CC2)C1N	< 10 nM	< 10 nM	< 10 nM	< 10 nM	< 10 nM	28.7%	27.2%	26.4%	25.4%	28.2%	30.4%	25.3%	23.1%	19.9%	21.6%	26.9%	26.5%	22.3%	15.8%	15.8%	viability, T/C (second compound 0.1 µM, first compound 0.01 µM): 43.9%; viability, T/C (second compound 0.316 µM, first compound 0.01 µM): 32.9%; viability, T/C (second compound 1 µM, first compound 0.01 µM): 29.5%; viability, T/C (second compound 3.16 µM, first compound 0.01 µM): 26.8%; viability, T/C [16]: 25.3%; viability, T/C [17]: 22.4%; viability, T/C [18]: 18.8%; viability, T/C [19]: 15.9%; viability, T/C [20]: 13.7%; viability, T/C (second compound 10 µM, first compound 0.01 µM): 25.4%; viability, T/C [21]: 22.9%; viability, T/C [22]: 19.2%; viability, T/C [23]: 14.4%; viability, T/C [24]: 12.9%; viability, T/C [25]: 10.9%
CCNC(=O)CC1N=C(c2ccc(Cl)cc2)c2cc(OC)ccc2-n2c(C)nnc21 (stereo not given) + CC1OCC2(CCN(c3cnc(Sc4ccnc(N)c4Cl)c(N)n3)CC2)C1N	< 31.6 nM	< 31.6 nM	< 31.6 nM	< 31.6 nM	< 31.6 nM	45.2%	44%	31.5%	24.1%	21%	37.2%	32.5%	25.5%	17.2%	14.8%	32.3%	27.5%	30.4%	13.2%	10.3%	viability, T/C [26]: 22.4%; viability, T/C [27]: 16.2%; viability, T/C [28]: 8.97%; viability, T/C [16]: 25.7%; viability, T/C [17]: 20.9%; viability, T/C [18]: 17.8%; viability, T/C [19]: 10.3%; viability, T/C [20]: 8.12%; viability, T/C [29]: 6.43%; viability, T/C [21]: 22.3%; viability, T/C [22]: 19.1%; viability, T/C [23]: 12%; viability, T/C [24]: 6.42%; viability, T/C [25]: 4.77%; viability, T/C [30]: 4.55%
Cn1nccc1Nc1nccc(-c2cc3c(s2)C(C)(C)N(CCN2CCOCC2)C3=O)n1 + CC1OCC2(CCN(c3cnc(Sc4ccnc(N)c4Cl)c(N)n3)CC2)C1N	47.7 nM	< 31.6 nM	< 31.6 nM	< 31.6 nM	< 31.6 nM	53.7%	43.2%	38.1%	36%	29.2%	45.1%	41.5%	34.3%	34.9%	25.8%	38.2%	39.2%	31.3%	30%	23.8%	viability, T/C [26]: 35.1%; viability, T/C [27]: 25%; viability, T/C [28]: 18.9%; viability, T/C [16]: 33.5%; viability, T/C [17]: 30.4%; viability, T/C [18]: 30.9%; viability, T/C [19]: 24.4%; viability, T/C [20]: 16.3%; viability, T/C [29]: 18.3%; viability, T/C [21]: 29%; viability, T/C [22]: 29.5%; viability, T/C [23]: 21.5%; viability, T/C [24]: 15.6%; viability, T/C [25]: 10.8%; viability, T/C [30]: 13.1%
